# Results reported in US20230104936A1, “TRPML MODULATORS” (Casma Therapeutics, Inc., priority 2019, published 2023).
# Tested on: TFEB
# Assay: TFEB nuclear translocation assay, HeLa wt cells
# Format: cell-based
# Settings: Homo sapiens, HeLa, 2 h, 2 hrs compound treatment, Table 1 does not say HeLa wt or TRPML1 KO
# Method in brief: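 TFEB translocation into the nucleus of HeLa wt cells is scored by high-content immunofluorescence after 2 hrs of compound treatment at 37° C, reported as AC50.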
row,SMILES,AC50
1,"O=S(=O)(CC12CC3CC(CC(C3)C1)C2)Nc1cccc(Cl)c1N1CCOCC1 [Compound A-394, 1-(adamantan-1-yl)-N-[3-chloro-2-(morpholin-4-yl)phenyl]methanesulfonamide]",2010 to 8000 nM
2,"O=S(=O)(Nc1cc(Cl)ccc1N1CCC2(COC2)C1)c1ccc2c(c1)CCC2 [Compound A-395, N-(5-chloro-2-{2-oxa-6-azaspiro[3.4]octan-6-yl}phenyl)-2,3-dihydro-1H-indene-5-sulfonamide]",≥ 10000 nM
3,"O=S(=O)(Nc1cc(Cl)ccc1N1CC2(CCC2)OC2(CCC2)C1)c1ccc2c(c1)CCC2 [Compound A-396, N-(5-chloro-2-{5-oxa-11-azadispiro[3.1.3^6.3^4]dodecan-11-yl}phenyl)-2,3-dihydro-1H-indene-5-sulfonamide]",≤ 2000 nM
4,"O=S(=O)(Nc1cc(Cl)ccc1N1CC2(CCC2)C1C1CCCO1)c1ccc2c(c1)CCC2 (stereo not shown) [Compound A-397, N-{5-chloro-2-[1-(oxolan-2-yl)-2-azaspiro[3.3]heptan-2-yl]phenyl}-2,3-dihydro-1H-indene-5-sulfonamide]",2010 to 8000 nM
5,"CN1Cc2ccccc2C2(CCN(c3ccccc3NS(=O)(=O)c3ccc(S(C)(=O)=O)cc3)CC2)C1 [Compound A-398, 4-methanesulfonyl-N-(2-{2-methyl-2,3-dihydro-1H-spiro[isoquinoline-4,4′-piperidin]-1′-yl}phenyl)benzene-1-sulfonamide; formic acid]",2010 to 8000 nM
6,"CN(C)S(=O)(=O)c1ccc(S(=O)(=O)Nc2ccccc2N2CCN(C(=O)C34CC5CC(CC(C5)C3)C4)CC2)cc1 [Compound A-399, N4-{2-[4-(adamantane-1-carbonyl)piperazin-1-yl]phenyl}-N1,N1-dimethylbenzene-1,4-disulfonamide]",≤ 2000 nM
7,"CN(C)S(=O)(=O)c1ccc(S(=O)(=O)Nc2cc(Cl)ccc2N2CCN(C(=O)C(C)(C)C)CC2)cc1 [Compound A-400, N4-{5-chloro-2-[4-(2,2-dimethylpropanoyl)piperazin-1-yl]phenyl}-N1,N1-dimethylbenzene-1,4-disulfonamide]",2010 to 8000 nM
8,"CN(C)S(=O)(=O)c1ccc(S(=O)(=O)Nc2ccccc2N2CCC(O)(c3ccncc3F)CC2)cc1 [Compound A-401, N4-{2-[4-(3-fluoropyridin-4-yl)-4-hydroxypiperidin-1-yl]phenyl}-N1,N1-dimethylbenzene-1,4-disulfonamide]",≥ 10000 nM
9,"CS(=O)(=O)c1ccc(S(=O)(=O)Nc2ccccc2N2CCC3(CC2)OCCc2ccccc23)cc1 [Compound A-402, N-(2-{3,4-dihydrospiro[2-benzopyran-1,4′-piperidin]-1′-yl}phenyl)-4-methanesulfonylbenzene-1-sulfonamide]",2010 to 8000 nM
10,"CS(=O)(=O)c1ccc(S(=O)(=O)Nc2ccccc2N2CCC3(CC2)CN(Cc2ccncc2)c2cc(F)ccc23)cc1 [Compound A-403, N-(2-{6-fluoro-1-[(pyridin-4-yl)methyl]-1,2-dihydrospiro[indole-3,4′-piperidin]-1′-yl}phenyl)-4-methanesulfonylbenzene-1-sulfonamide]",2010 to 8000 nM
11,"CN1CCC(N(C)S(=O)(=O)c2ccc(NC(=O)COc3ccccc3-c3ccccc3)cc2)CC1 [Compound A-404, 2-{[1,1′-biphenyl]-2-yloxy}-N-{4-[methyl(1-methylpiperidin-4-yl)sulfamoyl]phenyl}acetamide]",2010 to 8000 nM
12,"O=S(=O)(Nc1cc(Cl)ccc1N1CCCC12CCCOC2)c1ccc2c(c1)CCC2 (stereo not shown) [Compound A-405, N-(5-chloro-2-{7-oxa-1-azaspiro[4.5]decan-1-yl}phenyl)-2,3-dihydro-1H-indene-5-sulfonamide]",2010 to 8000 nM
13,"CN(C)S(=O)(=O)c1ccc(S(=O)(=O)Cc2ccccc2N2CCN(Cc3ccccc3)CC2)cc1 [Compound A-406, 4-((2-(4-benzylpiperazin-1-yl)benzyl)sulfonyl)-N,N-dimethylbenzenesulfonamide]",2010 to 8000 nM
14,"CS(=O)(=O)c1ccc(S(=O)(=O)Nc2ccccc2N2CCC3(CC2)CN(Cc2cccnc2)c2cc(F)ccc23)cc1 [Compound A-407, N-(2-{6-fluoro-1-[(pyridin-3-yl)methyl]-1,2-dihydrospiro[indole-3,4′-piperidin]-1′-yl}phenyl)-4-methanesulfonylbenzene-1-sulfonamide]",≤ 2000 nM
15,"Cc1ccc(S(=O)(=O)Nc2ccccc2N2CCC(O)(c3ccc(F)cn3)CC2)cc1 [Compound A-408, N-{2-[4-(5-fluoropyridin-2-yl)-4-hydroxypiperidin-1-yl]phenyl}-4-methylbenzene-1-sulfonamide]",≥ 10000 nM
16,"COc1ccc(S(=O)(=O)Nc2ccccc2N2CCC(O)(c3ccc(F)cn3)CC2)cc1 [Compound A-409, N-{2-[4-(5-fluoropyridin-2-yl)-4-hydroxypiperidin-1-yl]phenyl}-4-methoxybenzene-1-sulfonamide]",≥ 10000 nM
17,"CC(C)(C)C(=O)N1CCN(c2ccccc2NS(=O)(=O)Cc2ccccc2)CC1 [Compound A-410, N-{2-[4-(2,2-dimethylpropanoyl)piperazin-1-yl]phenyl}-1-phenylmethanesulfonamide]",2010 to 8000 nM

row,SMILES,AC50
1,"CN1CC2(CCN(c3ccccc3NS(=O)(=O)c3ccc(S(=O)(=O)N(C)C)cc3)CC2)c2ccncc21 [Compound A-412, N1,N1-dimethyl-N4-(2-{1′-methyl-1′,2′-dihydrospiro[piperidine-4,3′-pyrrolo[2,3-c]pyridin]-1-yl}phenyl)benzene-1,4-disulfonamide]",≤ 2000 nM
2,CC(C)S(=O)(=O)c1ccc(S(=O)(=O)Nc2ccccc2N2CCC(O)(c3ccc(F)cn3)CC2)cc1 [Compound A-413],8010 to 9990 nM
3,"CN(C)S(=O)(=O)c1ccc(S(=O)(=O)Nc2ccccc2N2CCN(c3ccn(C(C)(C)C)n3)CC2)cc1 [Compound A-414, N4-{2-[4-(1-tert-butyl-1H-pyrazol-3-yl)piperazin-1-yl]phenyl}-N1,N1-dimethylbenzene-1,4-disulfonamide]",≤ 2000 nM
4,"CN(C)S(=O)(=O)c1ccc(S(=O)(=O)Nc2ccccc2N2CCC(CNC(C)(C)C)CC2)cc1 [Compound A-415, N4-(2-{4-[(tert-butylamino)methyl]piperidin-1-yl}phenyl)-N1,N1-dimethylbenzene-1,4-disulfonamide]",≤ 2000 nM
5,"C[C@H]1CN(c2ccccc2NS(=O)(=O)c2ccc(S(=O)(=O)N(C)C)cc2)CCN1C(=O)c1cscn1 [Compound A-416, N1,N1-dimethyl-N4-{2-[(3S)-3-methyl-4-(1,3-thiazole-4-carbonyl)piperazin-1-yl]phenyl}benzene-1,4-disulfonamide]",2010 to 8000 nM
6,"CN1CCN(CCCS(=O)(=O)Nc2ccccc2N2CCN(C(=O)C(C)(C)C)CC2)CC1 [Compound A-417, N-{2-[4-(2,2-dimethylpropanoyl)piperazin-1-yl]phenyl}-3-(4-methylpiperazin-1-yl)propane-1-sulfonamide]",2010 to 8000 nM
7,"COCC(C)N1CCN(c2ccccc2NS(=O)(=O)c2ccc(S(=O)(=O)N(C)C)cc2)CC1 (stereo not shown) [Compound A-418, N4-{2-[4-(1-methoxypropan-2-yl)piperazin-1-yl]phenyl}-N1,N1-dimethylbenzene-1,4-disulfonamide]",2010 to 8000 nM
8,"CN(C)S(=O)(=O)c1ccc(S(=O)(=O)Nc2ccccc2N2CCC(C3CCCO3)CC2)cc1 (stereo not shown) [Compound A-419, N1,N1-dimethyl-N4-{2-[4-(oxolan-2-yl)piperidin-1-yl]phenyl}benzene-1,4-disulfonamide]",≤ 2000 nM
9,"CN(C)S(=O)(=O)c1ccc(S(=O)(=O)Nc2ccccc2N2CCC(O)(C3CC3)CC2)cc1 [Compound A-420, N4-[2-(4-cyclopropyl-4-hydroxypiperidin-1-yl)phenyl]-N1,N1-dimethylbenzene-1,4-disulfonamide]",2010 to 8000 nM
10,"CN(C)S(=O)(=O)c1ccc(S(=O)(=O)Nc2ccccc2N2CCC3(CCOC3)CC2)cc1 [Compound A-422, N1,N1-dimethyl-N4-(2-{2-oxa-8-azaspiro[4.5]decan-8-yl}phenyl)benzene-1,4-disulfonamide]",≤ 2000 nM
11,"CS(=O)(=O)c1ccc(S(=O)(=O)Nc2ccccc2N2CCC3(CC2)CN(CC2CCOC2)c2cc(F)ccc23)cc1 (stereo not shown) [Compound A-423, N-(2-{6-fluoro-1-[(oxolan-3-yl)methyl]-1,2-dihydrospiro[indole-3,4′-piperidin]-1′-yl}phenyl)-4-methanesulfonylbenzene-1-sulfonamide]",≤ 2000 nM
12,"CNS(=O)(=O)c1ccc(S(=O)(=O)Nc2ccccc2N2CCC(c3ccc(Cl)cc3F)CC2)cc1 [Compound A-424, N1-{2-[4-(4-chloro-2-fluorophenyl)piperidin-1-yl]phenyl}-N4-methylbenzene-1,4-disulfonamide]",2010 to 8000 nM
13,"CN(C)S(=O)(=O)c1ccc(S(=O)(=O)Nc2ccccc2N2CCN(C(=O)C3(C)CCC3)CC2)cc1 [Compound A-425, N1,N1-dimethyl-N4-{2-[4-(1-methylcyclobutanecarbonyl)piperazin-1-yl]phenyl}benzene-1,4-disulfonamide]",2010 to 8000 nM
14,"CCC(C)(C)CC(=O)N1CCN(c2ccccc2NS(=O)(=O)c2ccc(S(=O)(=O)N(C)C)cc2)CC1 [Compound A-426, N4-{2-[4-(3,3-dimethylpentanoyl)piperazin-1-yl]phenyl}-N1,N1-dimethylbenzene-1,4-disulfonamide]",≤ 2000 nM
15,"CN(C)S(=O)(=O)c1ccc(S(=O)(=O)Nc2ccccc2N2CCN(C(=O)C3CC3(C)C)CC2)cc1 (stereo not shown) [Compound A-427, N4-{2-[4-(2,2-dimethylcyclopropanecarbonyl)piperazin-1-yl]phenyl}-N1,N1-dimethylbenzene-1,4-disulfonamide]",2010 to 8000 nM
16,"CC(C(=O)N1CCN(c2ccccc2NS(=O)(=O)c2ccc(S(=O)(=O)N(C)C)cc2)CC1)C(C)(C)C (stereo not shown) [Compound A-428, N1,N1-dimethyl-N4-{2-[4-(2,3,3-trimethylbutanoyl)piperazin-1-yl]phenyl}benzene-1,4-disulfonamide]",≤ 2000 nM
17,"CN(C)S(=O)(=O)c1ccc(S(=O)(=O)Nc2ccccc2N2CCN(C(=O)C3CC(F)(F)C3)CC2)cc1 [Compound A-429, N4-{2-[4-(3,3-difluorocyclobutanecarbonyl)piperazin-1-yl]phenyl}-N1,N1-dimethylbenzene-1,4-disulfonamide]",2010 to 8000 nM
